In US11180503B2, “[1,2,4]Triazolo[4,3-A]pyrazin-6(5H)-one derivatives” (Eli Lilly and Company, priority 2017, dated 2021):

Legend:
Assay type in all cases: biochemical
human PDE1A = human PDE1A (Homo sapiens (Human), UniProt P54750); assay: Ca2+-calmodulin dependent PDE enzyme assay (radiometric SPA, [3H]cAMP); details: human PDE1A 0.25 nM, [3H]cAMP 47 nM; read-out: PDE 1A IC50
From the text: (§1) The nucleotide sequences encoding full-length human PDE1A (NP_001003683.1) and PDE1C (NP_005011.1) are inserted into pFastBac1 (Invitrogen) vector with an N-terminal HIS tag. The nucleotide sequences encoding full-length human PDE4D (NP_006194.2) and catalytic domain (residue 641-1141) of PDE3A (NP_000912.3) are inserted into pFastBac1 (Invitrogen) vector with a C-terminal HIS tag. The nucleotide sequences encoding full-length human PDE6A (NP_000431.2) and PDE6B (AAH00249.1) are inserted into pFastBacDual (Invitrogen) vector with an N-terminal HIS tag and N-terminal Flag tag, respectively, for production of PDE6A/6B dimer. Baculovirus generation and protein expression in Sf9 cells are carried out according to the protocol of Bac-to-Bac Baculovirus Expression system (Invitrogen). The nucleotide sequence encoding full-length human PDE1B (NP_000915.1) is inserted into pIEX4 (Novagen) with a C-terminal HIS tag, and both protein productions in Sf9 cells are carried out according to the vendor's protocol (Novagen). The His tagged PDE proteins are purified using Ni-NTA agarose (Qiagen) followed by size exclusion chromatography on a SUPERDEX® 200 column (GE Healthcare) in storage buffer (20 mM Tris-HCl, pH7.5, 150 mM NaCl, 10% Glycerol). The Flag tagged PDE proteins including PDE6A/6B are purified using anti-Flag M2-agarose (Sigma), after purification through NiNTA column chromatography and eluted in storage buffer (50 mM Tris-HCl, pH7.5, 150 mM NaCl, 10% Glycerol, 0.1 mg/ml Flag peptide). All purified proteins are stored at −80° C. in small aliquots.
(§2) All 3′,5′ cyclic nucleotide phosphodiesterase (PDE) enzyme activities are measured with a radiometric enzyme assay based on SPA detection system (scintillation proximity assay). Compounds to be tested are diluted in pure dimethyl sulfoxide (DMSO) using ten point concentration response curves. Maximal compound concentration in the reaction mixture is either 10 or 100 μM. Compounds at the appropriate concentration are pre-incubated with either of the PDE enzymes for 30 minutes before the reaction is started by the addition of substrate. Reactions are allowed to proceed for 60 minutes at room temperature. Next, reactions are stopped by addition of SPA beads. Samples are read 12 hours later in a MICROBETA™ TRILUX® Counter. “IC50” refers to the concentration of the compound that produces 50% of the maximal inhibitory response possible for that compound. IC50 values are calculated by plotting the normalized data vs. log [compound] and fitting the data using a four parameter logistic equation.
(§3) PDE1B, PDE1A, and PDE1C are cloned and purified following standard protein generation procedures. The assay buffer is prepared to give a final concentration in the assay of 50 mM Tris-HCl, 50 mM MgCl2, 4 mM CaCl2, 0.1% Bovine serum albumin and 6 U/ml Calmodulin in water, at pH 7.5. The final enzyme concentration is 0.25, 0.074 and 0.0012 nM, for PDE1A, PDE1B and PDE1C respectively. The reactions are started by addition of the substrate, [^3H]cAMP, to give a final concentration of 47 nM.

human PDE1B = human PDE1B (Homo sapiens (Human), UniProt Q01064); assay: as above; details: human PDE1B 0.074 nM, [3H]cAMP 47 nM; read-out: PDE 1B IC50
From the text: as §1, §2, §3

human PDE1C = human PDE1C (Homo sapiens (Human), UniProt Q14123); assay: as above; details: human PDE1C 0.0012 nM, [3H]cAMP 47 nM; read-out: PDE 1C IC50
From the text: as §1, §2, §3

[1] = target: human PDE3A (catalytic domain) (Homo sapiens (Human), UniProt Q14432); assay: PDE enzyme assay using [3H]cAMP as substrate (radiometric SPA); details: human PDE3A catalytic domain 0.008 nM, [3H]cAMP 47 nM
Sequence of human PDE3A (catalytic domain) (Q14432 641-1141): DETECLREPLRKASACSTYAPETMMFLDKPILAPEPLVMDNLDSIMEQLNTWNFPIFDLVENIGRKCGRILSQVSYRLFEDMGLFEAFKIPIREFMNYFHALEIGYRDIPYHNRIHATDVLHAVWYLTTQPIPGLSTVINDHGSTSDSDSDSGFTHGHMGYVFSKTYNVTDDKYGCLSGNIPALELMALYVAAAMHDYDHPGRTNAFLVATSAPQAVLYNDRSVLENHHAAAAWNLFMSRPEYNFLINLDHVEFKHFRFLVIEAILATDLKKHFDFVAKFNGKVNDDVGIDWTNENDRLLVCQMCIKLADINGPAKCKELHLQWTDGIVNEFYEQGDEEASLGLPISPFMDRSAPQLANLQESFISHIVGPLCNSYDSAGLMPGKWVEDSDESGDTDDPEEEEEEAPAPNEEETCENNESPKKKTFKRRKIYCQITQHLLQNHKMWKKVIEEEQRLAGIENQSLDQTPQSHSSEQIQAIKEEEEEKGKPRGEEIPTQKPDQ
From the text: as §1, §2
(§4) The following phosphodiesterase activities are measured using [^3H]cAMP as reaction substrate: human PDE3A (catalytic domain) and human PDE4D. Both enzymes are cloned and purified following standard procedures. The assay buffer is prepared to give a final concentration in the assay of 50 mM Tris-HCl, 8.3 mM MgCl2, 1.7 mM ethylenediaminetetraacetic acid (EDTA) and 0.1% Bovine serum albumin at pH 7.5. Final enzyme concentrations are 0.008 and 0.021 nM for PDE3A and PDE4D, respectively. Reactions are started by addition of the substrate, [^3H]cAMP, to give a final concentration of 47 nM.

human PDE4D = human PDE4D (Homo sapiens (Human), UniProt Q08499); assay: as above; details: human PDE4D 0.021 nM, [3H]cAMP 47 nM; read-out: PDE 4D IC50
Sequence of human PDE4D (Q08499 other isoform, or with tags, fused parts or gaps): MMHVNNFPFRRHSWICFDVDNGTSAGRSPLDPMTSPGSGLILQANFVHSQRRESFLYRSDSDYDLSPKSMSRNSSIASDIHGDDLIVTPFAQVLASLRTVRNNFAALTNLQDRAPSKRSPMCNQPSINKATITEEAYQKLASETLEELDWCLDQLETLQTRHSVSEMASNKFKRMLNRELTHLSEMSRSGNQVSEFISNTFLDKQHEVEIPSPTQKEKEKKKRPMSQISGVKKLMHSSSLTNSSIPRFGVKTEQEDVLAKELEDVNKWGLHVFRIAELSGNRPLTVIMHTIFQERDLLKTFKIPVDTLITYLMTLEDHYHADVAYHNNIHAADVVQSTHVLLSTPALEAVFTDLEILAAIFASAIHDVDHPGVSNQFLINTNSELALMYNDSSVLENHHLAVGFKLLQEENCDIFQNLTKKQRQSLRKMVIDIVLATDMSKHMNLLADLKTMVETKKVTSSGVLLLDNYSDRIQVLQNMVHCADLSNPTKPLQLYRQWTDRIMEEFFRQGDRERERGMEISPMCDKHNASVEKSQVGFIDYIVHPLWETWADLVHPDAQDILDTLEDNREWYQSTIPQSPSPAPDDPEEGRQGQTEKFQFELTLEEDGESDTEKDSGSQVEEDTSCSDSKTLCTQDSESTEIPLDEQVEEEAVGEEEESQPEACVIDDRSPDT
From the text: as §1, §2, §4

human PDE6A/6B = human PDE6A/6B (Homo sapiens (Human), UniProt P16499+P35913); assay: PDE enzyme assay using [3H]cGMP as substrate (radiometric SPA); details: human PDE6A/6B dimer 5 nM, [3H]cGMP 80 nM; read-out: PDE 6AB IC50
Sequence of human PDE6A/6B (P16499 whole entry, change not shown): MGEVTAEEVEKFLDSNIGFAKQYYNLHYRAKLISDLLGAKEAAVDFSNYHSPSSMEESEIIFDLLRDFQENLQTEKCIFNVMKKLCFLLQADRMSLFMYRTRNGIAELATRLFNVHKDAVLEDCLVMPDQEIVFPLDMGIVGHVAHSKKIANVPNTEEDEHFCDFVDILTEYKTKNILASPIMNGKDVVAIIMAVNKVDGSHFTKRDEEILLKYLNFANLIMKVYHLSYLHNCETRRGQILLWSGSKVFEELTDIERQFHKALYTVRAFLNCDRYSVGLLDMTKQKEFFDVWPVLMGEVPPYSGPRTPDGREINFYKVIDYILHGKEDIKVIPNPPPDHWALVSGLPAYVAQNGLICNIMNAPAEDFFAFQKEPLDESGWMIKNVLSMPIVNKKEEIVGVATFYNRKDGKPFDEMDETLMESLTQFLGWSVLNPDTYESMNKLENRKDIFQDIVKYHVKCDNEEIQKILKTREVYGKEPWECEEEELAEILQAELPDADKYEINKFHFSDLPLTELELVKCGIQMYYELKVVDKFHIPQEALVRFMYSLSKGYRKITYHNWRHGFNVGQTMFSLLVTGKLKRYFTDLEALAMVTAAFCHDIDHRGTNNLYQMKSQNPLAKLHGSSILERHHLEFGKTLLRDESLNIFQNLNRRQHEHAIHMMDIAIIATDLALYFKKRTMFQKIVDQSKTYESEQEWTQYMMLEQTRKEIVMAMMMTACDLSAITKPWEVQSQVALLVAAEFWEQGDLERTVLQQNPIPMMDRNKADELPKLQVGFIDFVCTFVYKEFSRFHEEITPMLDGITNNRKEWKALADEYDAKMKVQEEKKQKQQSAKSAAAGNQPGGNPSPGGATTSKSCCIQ
Sequence of human PDE6A/6B (P35913 other isoform, or with tags, fused parts or gaps isoform P35913-2): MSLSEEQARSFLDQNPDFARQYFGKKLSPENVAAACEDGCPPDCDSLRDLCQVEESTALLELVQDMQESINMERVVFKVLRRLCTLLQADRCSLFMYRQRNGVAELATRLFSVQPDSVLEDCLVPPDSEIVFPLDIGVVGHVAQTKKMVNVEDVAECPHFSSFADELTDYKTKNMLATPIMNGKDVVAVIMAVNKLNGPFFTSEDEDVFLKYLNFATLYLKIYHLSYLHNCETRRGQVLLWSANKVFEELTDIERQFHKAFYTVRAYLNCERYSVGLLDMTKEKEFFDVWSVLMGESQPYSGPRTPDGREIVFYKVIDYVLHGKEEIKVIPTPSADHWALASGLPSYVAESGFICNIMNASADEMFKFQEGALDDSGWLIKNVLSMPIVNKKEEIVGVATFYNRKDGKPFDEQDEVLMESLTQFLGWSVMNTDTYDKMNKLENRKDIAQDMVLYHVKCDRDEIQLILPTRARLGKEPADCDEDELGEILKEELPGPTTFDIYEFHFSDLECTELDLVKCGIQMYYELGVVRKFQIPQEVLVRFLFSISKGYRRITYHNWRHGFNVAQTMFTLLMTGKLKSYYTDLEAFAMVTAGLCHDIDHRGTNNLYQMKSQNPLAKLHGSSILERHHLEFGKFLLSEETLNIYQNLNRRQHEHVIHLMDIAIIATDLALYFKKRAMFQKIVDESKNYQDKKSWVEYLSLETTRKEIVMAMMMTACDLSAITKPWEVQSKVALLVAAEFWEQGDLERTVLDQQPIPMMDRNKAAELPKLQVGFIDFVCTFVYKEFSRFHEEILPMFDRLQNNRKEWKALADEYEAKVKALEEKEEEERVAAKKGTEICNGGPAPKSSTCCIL
From the text: as §1, §2
The following phosphodiesterase activities are measured using [^3H]cGMP as reaction substrate: human PDE6A/6B. The catalytic active form of human PDE6 is a dimer composed of a α (human PDE6A) and β subunits (human PDE6B). The dimer of human PDE6A/6B is produced by the coexpression and purification strategy, using two purification steps, i.e., NiNTA and anti-FLAG Sepharose chromatography. The assay buffer is prepared to give a final concentration in the assay of 50 mM Tris-HCl, 8.3 mM MgCl2, 1.7 mM EDTA and 0.1% Bovine serum albumin at pH 7.5. The final enzyme concentration is 5 nM. The reactions are started by addition of the substrate, [^3H]cGMP, to give a final concentration of 80 nM.

Row | SMILES | IC50 (human PDE1A) [nM] | IC50 (human PDE1B) [nM] | IC50 (human PDE1C) [nM] | IC50 [1] [nM] | IC50 (human PDE4D) [nM] | IC50 (human PDE6A/6B) [nM]
1 | CCC(Cn1c(=O)c2nnc(C3(C4CC4)CC3)n2c2ncccc21)OC (racemic) [Example 4, rac-9-([1,1′-Bi(cyclopropan)]-1-yl)-5-(2-methoxybutyl)-pyrido[3,2-e][1,2,4]triazolo[4,3-a]pyrazin-6(5H)-one] | 13.9 ± 2.06 | 33.5 ± 6.26 | 0.609 ± 0.128 | > 100000 | 33600 | > 10000
2 | CCC(Cn1c(=O)c2nnc(C3(C4CC4)CC3)n2c2ncccc21)OC (single isomer, unassigned) [Example 4a, 9-([1,1′-bi(cyclopropan)]-1-yl)-5-(2-methoxybutyl)pyrido[3,2-e][1,2,4]triazolo[4,3-a]pyrazin-6(5H)-one] | 26.8 | 40.1 | 1.49 | > 100000 | > 100000 | > 10000
3 | CCC(Cn1c(=O)c2nnc(C3(C4CC4)CC3)n2c2ncccc21)OC (single isomer, unassigned) [Example 4b, 9-([1,1′-bi(cyclopropan)]-1-yl)-5-(2-methoxybutyl)pyrido[3,2-e][1,2,4]triazolo[4,3-a]pyrazin-6(5H)-one] | 15.1 ± 2.84 | 25.8 ± 0.614 | 1.46 ± 0.642 |  | > 100000 | 
4 | CCCCn1c(=O)c2nnc(C3(C4CC4)CC3)n2c2ncc(C)cc21 [Example 1, 9-([1,1′-bi(cyclopropan)]-1-yl)-5-butyl-3-methylpyrido[3,2-e][1,2,4]triazolo[4,3-a]pyrazin-6(5H)-one] | 0.366 ± 0.765 | 0.406 ± 1.08 | < 0.508 | > 50000 | 1590 ± 217 | ≥ 3450
5 | CCCCn1c(=O)c2nnc(C3(C(F)(F)F)CC3)n2c2ncc(C)cc21 [Example 2, 5-Butyl-3-methyl-9-(1-(trifluoromethyl)cyclopropyl)pyrido[3,2-e][1,2,4]triazolo[4,3-a]pyrazin-6(5H)-one] | 8.62 ± 2.53 | 12.1 ± 1.06 | 1.62 ± 0.231 | > 100000 | 26000 | > 10000
6 | CCCn1c(=O)c2nnc(C3(C4CC4)CC3)n2c2ncc(C)cc21 [Example 3, 9-([1,1′-Bi(cyclopropan)]-1-yl)-3-methyl-5-propylpyrido[3,2-e][1,2,4]triazolo[4,3-a]pyrazin-6(5H)-one] | 2.59 ± 1.69 | 3.41 ± 1.52 | 2.77 ± 0.636 | > 100000 | 2120 | > 10000
7 | O=c1c2nnc(C3(C4CC4)CC3)n2c2nc(O)ccc2n1CC1CC1 [Example 5, 9-([1,1′-bi(cylopropan)]-1-yl)-5-(cyclopropylmethyl)-2-hydroxypyrido[3,2-e][1,2,4]triazolo[4,3-a]pyrazin-6(5H)-one] | 2.75 ± 2.11 | 2.41 ± 0.846 | 0.931 ± 0.132 | 22900 ± 1140 | 14700 ± 8240 | > 10000
8 | CCCCn1c(=O)c2nnc(C3(C)CC3)n2c2ncc(C)cc21 [Example 6, 5-butyl-3-methyl-9-(1-methylcyclopropyl)pyrido[3,2-e][1,2,4]triazolo[4,3-a]pyrazin-6(5H)-one] | 11.6 ± 7.55 | 15.4 ± 0.0529 | 2.57 ± 0.544 | > 100000 | 6010 | 9590
9 | CCCCn1c(=O)c2nnc(C3(C)CC3)n2c2ncc(CC)cc21 [Example 8, 5-butyl-3-ethyl-9-(1-methylcyclopropyl)pyrido[3,2-e][1,2,4]triazolo[4,3-a]pyrazin-6(5H)-one] | 8.01 ± 3.55 | 9.34 ± 4.33 | 2.14 ± 0.997 | > 100000 | 957 | 3290
10 | CCCCn1c(=O)c2nnc(C3(C)CC3)n2c2ncc(CO)cc21 [Example 12, 5-Butyl-3-(hydroxymethyl)-9-(1-methylcyclopropyl)pyrido[3,2-e][1,2,4]triazolo[4,3-a]pyrazin-6(5H)-one] | 23 ± 3.62 | 17.4 ± 10 | 4.02 ± 0.167 | ≥ 93400 | 5130 ± 2140 | 3060 ± 1450

Results, then the compound that gave them:

Row | IC50 (human PDE1A) [nM] | IC50 (human PDE1B) [nM] | IC50 (human PDE1C) [nM] | IC50 [1] [nM] | IC50 (human PDE4D) [nM] | IC50 (human PDE6A/6B) [nM] | SMILES
11 | 0.343 ± 0.765 | 0.4 ± 0.867 | < 0.5 | 71200 | 3020 | 1200 | CCCCn1c(=O)c2nnc(C3(C4CC4)CC3)n2c2nc(C)c(C)cc21 [Example 7, 9-([1,1′-Bi(cyclopropan)]-1-yl)-5-butyl-2,3-dimethylpyrido[3,2-e][1,2,4]triazolo[4,3-a]pyrazin-6(5H)-one]
12 |  |  | < 0.5 |  | 675 |  | CCCCn1c(=O)c2nnc(C3(C4CC4)CC3)n2c2ncc(CC)cc21 [Example 9, 9-([1,1′-Bi(cyclopropan)]-1-yl)-5-butyl-3-ethylpyrido[3,2-e][1,2,4]triazolo[4,3-a]pyrazin-6(5H)-one]
13 | 0.26 ± 0.589 | 0.396 ± 0.749 | < 0.5 | > 100000 | 972 | 611 | CCCCn1c(=O)c2nnc(C3(C4CC4)CC3)n2c2ncc(C(C)C)cc21 [Example 10, 9-([1,1′-bi(cyclopropan)]-1-yl)-5-butyl-3-isopropylpyrido[3,2-e][1,2,4]triazolo[4,3-a]pyrazin-6(5H)-one]
14 |  |  | < 0.5 |  | 5560 |  | CCCCn1c(=O)c2nnc(C3(C4CC4)CC3)n2c2ncc(CO)cc21 [Example 11]
15 | 0.816 ± 0.198 | 1.13 ± 0.254 | < 0.5 | 19200 | 2090 | 2990 | CCCCn1c(=O)c2nnc(C3(C4CC4)CC3)n2c2nc(C)ccc21 [Example 13, 9-([1,1′-bi(cyclopropan)]-1-yl)-5-butyl-2-methylpyrido[3,2-e][1,2,4]triazolo[4,3-a]pyrazin-6(5H)-one]
